# Legend:
# [1] = test system: MATCH; test: PE application with different irrigation, greenhouse (Table 4); assay type: in vivo, Matricaria chamomilla; settings: g of AS/ha: (A) 90, (B) 300, (C) 140, (A)+(B)+(C) 90 + 300 + 140
# Description: (§1) In the standard design of the test, seeds of various broad-leaved weed and weed grass biotypes (origins) were sown in a 8-13 cm diameter pot filled with natural soil of a standard field soil (loamy silt; non-sterile) and covered with a covering soil layer of about 1 cm. The pots were then cultivated in a greenhouse (12-16 h of light, temperature day 20-22° C., night 15-18° C.) until the time of application. The pots were treated on a laboratory track sprayer with spray liquors comprising the compositions according to the invention, mixtures of the prior art or components used individually. Application of the active compounds or active compound combinations formulated as WG, WP, EC or otherwise was carried out at the appropriate growth stages of the plants. The application rate for the spray application was 100-600 l of water/ha. After the treatment, the plants were returned to the greenhouses.
# (§2) About 3 weeks after the application, the soil action or/and foliar action was assessed visually according to a scale of 0-100% in comparison to an untreated comparative group: 0%=no noticeable effect compared to the untreated comparative group; 100%=full effect compared to the untreated comparative group.
# (§3) (notes: the term “seeds” also includes vegetative propagation forms such as, for example, rhizome pieces; abbreviations used: h light=hours of illumination, g of AS/ha=gram of active substance per hectare, l/ha=liter per hectare, S=sensitive, R=resistant) • 1. Pre-emergence action against weeds: seeds of various broad-leaved weed and weed grass biotypes (origins) were sown in a 8-13 cm diameter pot filled with natural soil of a standard field soil (loamy silt; non-sterile) and covered with a covering soil layer of about 1 cm. The pots were then cultivated in a greenhouse (12-16 h of light, temperature day 20-22° C., night 15-18° C.) until the time of application. The pots were treated at the BBCH stage 00-10 of the seeds/plants on a laboratory track sprayer with spray liquors comprising the compositions according to the invention, mixtures or components used individually, as WG, WP, EC or other formulations. The application rate for the spray application was 100-600 l of water/ha. After the treatment, the plants were returned to the greenhouses and, when required, treated with fertilizer and watered. • 2. Post-emergence action against weeds: seeds of various broad-leaved weed and weed grass biotypes (origins) were sown in a 8-13 cm diameter pot filled with natural soil of a standard field soil (loamy silt; non-sterile) and covered with a covering soil layer of about 1 cm. The pots were then cultivated in a greenhouse (12-16 h of light, temperature day 20-22° C., night 15-18° C.) until the time of application. The pots were treated at various BBCH stages between 11-25 of the seeds/plants, i.e. generally between two to three weeks after the start of the cultivation, on a laboratory track sprayer with spray liquors comprising the compositions according to the invention, mixtures or components used individually, as WG, WP, EC or other formulations. The application rate for the spray application was 100-600 l of water/ha. After the treatment, the plants were returned to the greenhouses and, when required, treated with fertilizer and watered. • 3. Pre-emergence action against weeds with and without incorporation of active compound: seeds of various broad-leaved weed and weed grass biotypes (origins) were sown in a 8-13 cm diameter pot filled with natural soil of a standard field soil (loamy silt; non-sterile). […]
# [2] = test system: HORVS; test: PE application vs pre-sowing application, crop selectivity, greenhouse (Table 3); assay type: in vivo, Hordeum vulgare, summer barley; settings: g of AS/ha: (A) 90, (B) 300, (C) 140, (A)+(B)+(C) 90 + 300 + 140
# Description: as §1, §2, §3
# [3] = test system: STEME; test: PE soil application vs incorporation into the soil, greenhouse (Table 1); assay type: in vivo, Stellaria media; settings: g of AS/ha: (A) 90, (B) 300, (C) 70, (A)+(B)+(C) 90 + 300 + 70, visual, about 3 weeks after application
# Description: as §1, §2, §3
# [4] = test system: VIOAR; test: as above; assay type: in vivo, Viola arvensis; settings: g of AS/ha: (A) 90, (B) 300, (C) 70, (A)+(B)+(C) 90 + 300 + 70, visual, about 3 weeks after application
# Description: as §1, §2
# (§4) (notes: the term “seeds” also includes vegetative propagation forms such as, for example, rhizome pieces; abbreviations used: h light=hours of illumination, g of AS/ha=gram of active substance per hectare, l/ha=liter per hectare, S=sensitive, R=resistant) • 1. Pre-emergence action against weeds: seeds of various broad-leaved weed and weed grass biotypes (origins) were sown in a 8-13 cm diameter pot filled with natural soil of a standard field soil (loamy silt; non-sterile) and covered with a covering soil layer of about 1 cm. The pots were then cultivated in a greenhouse (12-16 h of light, temperature day 20-22° C., night 15-18° C.) until the time of application. The pots were treated at the BBCH stage 00-10 of the seeds/plants on a laboratory track sprayer with spray liquors comprising the compositions according to the invention, mixtures or components used individually, as WG, WP, EC or other formulations. The application rate for the spray application was 100-600 l of water/ha. After the treatment, the plants were returned to the greenhouses and, when required, treated with fertilizer and watered. • 2. Post-emergence action against weeds: seeds of various broad-leaved weed and weed grass biotypes (origins) were sown in a 8-13 cm diameter pot filled with natural soil of a standard field soil (loamy silt; non-sterile) and covered with a covering soil layer of about 1 cm. The pots were then cultivated in a greenhouse (12-16 h of light, temperature day 20-22° C., night 15-18° C.) until the time of application. […]
# [5] = test system: HORVS; test: Activity with different soil types, crop selectivity, greenhouse (Table 5); assay type: in vivo, Hordeum vulgare, summer barley; settings: g of AS/ha: (A) 90, (B) 300, (C) 140, (A)+(B)+(C) 90 + 300 + 140; for activity HORVS IU soil (crop plant): IU soil (loamy silt standard field soil); for activity HORVS IU/EC73 soil (crop plant): IU/EC73 soil (heavy soil, higher organic substance)
# Description: as §1, §2, §3
# [6] = test system: HORVS; test: PE soil application vs incorporation into the soil, crop selectivity, greenhouse (Table 1); assay type: in vivo, Hordeum vulgare, summer barley; settings: g of AS/ha: (A) 90, (B) 300, (C) 70, (A)+(B)+(C) 90 + 300 + 70, visual, about 3 weeks after application
# Description: as §1, §2, §3
# [7] = test system: MATCH; test: Different soil pH, PE application, greenhouse (Table 8); assay type: in vivo, Matricaria chamomilla; settings: for activity MATCH pH 7.4: soil pH 7.4, g of AS/ha: (A) 90, (B) 300, (C) 140, (A)+(B)+(C) 90 + 300 + 140; for activity MATCH pH 8.4: soil pH 8.4, g of AS/ha: (A) 90, (B) 300, (C) 140, (A)+(B)+(C) 90 + 300 + 140
# Description: as §1, §2, §3
# [8] = test system: LOLPE; test: PE application vs pre-sowing application, greenhouse (Table 3); assay type: in vivo, Lolium perenne; settings: g of AS/ha: (A) 90, (B) 300, (C) 140, (A)+(B)+(C) 90 + 300 + 140
# Description: as §1, §2, §4
# [9] = test system: AVEFA; test: as above; assay type: in vivo, Avena fatua; settings: g of AS/ha: (A) 90, (B) 300, (C) 140, (A)+(B)+(C) 90 + 300 + 140
# Description: as §1, §2, §4
# [10] = test system: HORVS; test: PO application, crop selectivity, greenhouse (Table 2); assay type: in vivo, Hordeum vulgare, summer barley; settings: g of AS/ha: (A) 120, (B) 1200, (C) 140, (A)+(B)+(C) 120 + 1200 + 140, visual, about 3 weeks after application
# Description: as §1, §2
# (§5) (notes: the term “seeds” also includes vegetative propagation forms such as, for example, rhizome pieces; abbreviations used: h light=hours of illumination, g of AS/ha=gram of active substance per hectare, l/ha=liter per hectare, S=sensitive, R=resistant) • 1. Pre-emergence action against weeds: seeds of various broad-leaved weed and weed grass biotypes (origins) were sown in a 8-13 cm diameter pot filled with natural soil of a standard field soil (loamy silt; non-sterile) and covered with a covering soil layer of about 1 cm. The pots were then cultivated in a greenhouse (12-16 h of light, temperature day 20-22° C., night 15-18° C.) until the time of application. […]
# [11] = test system: AVEFA; test: PE application with different irrigation, greenhouse (Table 4); assay type: in vivo, Avena fatua; settings: g of AS/ha: (A) 90, (B) 300, (C) 140, (A)+(B)+(C) 90 + 300 + 140
# Description: as §1, §2, §3
# [12] = test system: POAAN; test: PO application, greenhouse (Table 2); assay type: in vivo, Poa annua; settings: g of AS/ha: (A) 120, (B) 1200, (C) 140, (A)+(B)+(C) 120 + 1200 + 140, visual, about 3 weeks after application
# Description: as §1, §2, §5
# [13] = test system: TRZAW; test: Different soil pH, PE application, crop selectivity, greenhouse (Table 8); assay type: in vivo, Triticum aestivum, winter wheat; settings: for activity TRZAW pH 7.4 (crop plant): soil pH 7.4, g of AS/ha: (A) 90, (B) 300, (C) 140, (A)+(B)+(C) 90 + 300 + 140; for activity TRZAW pH 8.4 (crop plant): soil pH 8.4, g of AS/ha: (A) 90, (B) 300, (C) 140, (A)+(B)+(C) 90 + 300 + 140
# Description: as §1, §2, §3
# [14] = test system: STEME; test: Activity with different soil types, greenhouse (Table 5); assay type: in vivo, Stellaria media; settings: g of AS/ha: (A) 90, (B) 300, (C) 140, (A)+(B)+(C) 90 + 300 + 140; for activity STEME IU soil: IU soil (loamy silt standard field soil); for activity STEME IU/EC73 soil: IU/EC73 soil (heavy soil, higher organic substance)
# Description: as §1, §2, §3
# [15] = test system: VIOAR; test: as above; assay type: in vivo, Viola arvensis; settings: g of AS/ha: (A) 90, (B) 300, (C) 140, (A)+(B)+(C) 90 + 300 + 140; for activity VIOAR IU soil: IU soil (loamy silt standard field soil); for activity V18 VIOAR IU/EC73 soil: IU/EC73 soil (heavy soil, higher organic substance)
# Description: as §1, §2, §3
# [16] = test system: LOLSS; test: Resistant biotypes, PE application, greenhouse (Table 6); assay type: in vivo, Lolium species; settings: g of AS/ha: (A) 90, (B) 300, (C) 140, (A)+(B)+(C) 120 + 600 + 140, iodosulfuron 10; for activity LOLSS resistant: resistant (EMR) biotype; for activity LOLSS sensitive: sensitive biotype
# Description: as §1, §2, §4
# [17] = application 7 days prior to sowing
SMILES,activity MATCH ([1]; irrigation from above),activity MATCH ([1]; irrigation from below),activity HORVS (crop plant) ([2]; PE application),"activity HORVS (crop plant) [2, 17]",activity STEME ([3]; PE application),activity STEME ([3]; incorporation into the soil),activity VIOAR ([4]; PE application),activity VIOAR ([4]; incorporation into the soil),activity HORVS IU soil (crop plant) [5],activity HORVS IU/EC73 soil (crop plant) [5],activity HORVS (crop plant) ([6]; PE application),activity HORVS (crop plant) ([6]; incorporation into the soil),activity MATCH pH 7.4 [7],activity MATCH pH 8.4 [7],activity LOLPE ([8]; PE application),"activity LOLPE [8, 17]",activity AVEFA ([9]; PE application),"activity AVEFA [9, 17]",activity HORVS (crop plant) [10],activity AVEFA ([11]; irrigation from above),further results
"CCCN(CCC)c1c([N+](=O)[O-])cc(C(F)(F)F)cc1[N+](=O)[O-] [(B) trifluralin, 2,6-dinitro-N,N-dipropyl-4-(trifluoromethyl)benzenamine]",0%,40%,0%,20%,10%,70%,50%,0%,0%,0%,0%,35%,0%,0%,90%,0%,0%,60%,20%,25%,activity AVEFA ([11]; irrigation from below): 38%; activity POAAN [12]: 40%; activity TRZAW pH 7.4 (crop plant) [13]: 0%; activity TRZAW pH 8.4 (crop plant) [13]: 0%; activity STEME IU soil [14]: 50%; activity STEME IU/EC73 soil [14]: 5%; activity VIOAR IU soil [15]: 77%; activity V18 VIOAR IU/EC73 soil [15]: 0%; activity LOLSS resistant [16]: 83%; activity LOLSS sensitive [16]: 98%
"CSc1nnc(C(C)(C)C)c(=O)n1N [(C) metribuzin, 4-amino-6-(1,1-dimethyl-ethyl)-3-(methylthio)-1,2,4-triazin-5-(4H)-one]",0%,60%,30%,20%,75%,0%,0%,10%,0%,0%,30%,70%,100%,98%,20%,80%,70%,0%,70%,30%,activity AVEFA ([11]; irrigation from below): 30%; activity POAAN [12]: 79%; activity TRZAW pH 7.4 (crop plant) [13]: 70%; activity TRZAW pH 8.4 (crop plant) [13]: 80%; activity STEME IU soil [14]: 75%; activity STEME IU/EC73 soil [14]: 5%; activity VIOAR IU soil [15]: 50%; activity V18 VIOAR IU/EC73 soil [15]: 0%; activity LOLSS resistant [16]: 70%; activity LOLSS sensitive [16]: 70%

# — patent US20110152089A1, “HERBICIDAL COMPOSITIONS COMPRISING FLUFENACET” (Bayer CropScience AG, priority 2009, published 2011)
